Data from ChEMBL document CHEMBL1250449, “Aminoglycoside activity observed on single pre-translocation ribosome complexes” (Nat Chem Biol, 2010).
pEC50: −log10 of the molar value. The source made the active and inactive calls. The calls are words filed in the database; no cut-off is given here. Numbered stars: 1 amine (or outer) side, 2 acyl side, 3 side chain; on linkers, the order of the positions; unused ones are H or OH. Bridge positions count the residues as written; N and C are the ends. Square brackets hold non-standard residues; d marks the D form. Peptide text beside a SMILES is read from it. * marks the point of attachment. X1 = NC1=N[C@@H]([C@H](N[*:1])C(=O)[*:2])C[C@H](O)N1; ΔAla(Z-3-ureido) = NC(=O)N/C=C(\N)C(=O)O; β3hOrn = NCCC[C@H](N)CC(=O)*; Dap = NC[C@H](N)C(=O)O

Tests used:
Nucleic Acid [1] = test: Binding affinity to Escherichia coli 23S rRNA assessed as increase in classical-state occupancy by tRNA at 20 uM by smFRET; assay type: nucleic-acid assay; settings: MRE600
Nucleic Acid [2] = test: Binding affinity to Escherichia coli 23S rRNA G2553C mutant assessed as increase in classical-state occupancy by tRNA at 20 uM by smFRET; assay type: nucleic-acid assay; settings: MRE600
Nucleic Acid [3] = test: Binding affinity to Escherichia coli 16S rRNA helix 44 assessed as classical-state occupancy by tRNA; assay type: nucleic-acid assay; design: concentration or dose not given beside the values; settings: MRE600
Nucleic Acid [4] = test: Binding affinity to Escherichia coli 16S rRNA helix 44 assessed as tRNA translocation rate; assay type: nucleic-acid assay; settings: MRE600
Nucleic Acid [5] = test: Binding affinity to Escherichia coli 16S rRNA helix 44 assessed as reduction in rate of tRNA exit from classical state at 100 nM; assay type: nucleic-acid assay; settings: MRE600
Nucleic Acid [6] = test: Binding affinity to Escherichia coli 16S rRNA helix 44 assessed as reduction in rate of tRNA translocation at 100 nM; assay type: nucleic-acid assay; settings: MRE600
Nucleic Acid [7] = test: Binding affinity to Escherichia coli 16S rRNA helix 44 assessed as classical-state occupancy by tRNA at 100 nM (Rvb= 62.4+/-1.1%); assay type: nucleic-acid assay; settings: MRE600
Nucleic Acid [8] = test: Binding affinity to Escherichia coli 23S rRNA H69 assessed as classical-state occupancy by tRNA at 20 uM (Rvb= 62.4+/-1.1%); assay type: nucleic-acid assay; settings: MRE600
Nucleic Acid [9] = test: Binding affinity to Escherichia coli 16S rRNA helix 44 assessed as tRNA translocation rate at 100 nM (Rvb= 1.57+/-0.05 /sec); assay type: nucleic-acid assay; settings: MRE600
Nucleic Acid [10] = test: Binding affinity to Escherichia coli 23S rRNA H69 assessed as tRNA translocation rate at 20 uM (Rvb= 1.57+/-0.05 /sec); assay type: nucleic-acid assay; settings: MRE600
Nucleic Acid [11] = test: Binding affinity to Escherichia coli 23S rRNA assessed as decrease in classical-state occupancy by tRNA at 20 uM by smFRET; assay type: nucleic-acid assay; design: scale not given: the % may be the effect or the level left; settings: MRE600
Nucleic Acid [12] = test: Binding affinity to Escherichia coli 16S rRNA helix 44 assessed as increase in classical-state occupancy by tRNA at 100 nM by smFRET; assay type: nucleic-acid assay; settings: MRE600
Nucleic Acid [13] = test: Binding affinity to Escherichia coli 16S rRNA helix 44 assessed as decrease in classical-state occupancy by tRNA at 20 uM by smFRET; assay type: nucleic-acid assay; design: scale not given: the % may be the effect or the level left; settings: MRE600
[14] = biological target: T1, Bacterial 70S ribosome (Bacteria) (UniProt P0A7V0+P60723+P0AG67+P0A7R5+P0A7R9+P0A7S3+P0A7S9+P0AG59+P0ADZ4+P0A7T3+P0AG63+P0A7T7+P0A7U3+P0A7U7+P68679+P0A7V3+P0A7V8+P0A7W1+P02358+P02359+P0A7W7+P0A7X3+P0A7J3+P0A7J7+P0AA10+P0ADY3+P02413+P0ADY7+P0AG44+P0C018+P0A7K6+P0A7L0+P0A7L3+P0AG48+P61175+P0ADZ0+P60624+P68919+P0A7L8+P0A7M2+P0A7M6+P60422+P0AG51+P0A7N1+P0A7M9+P0A7N4+P0A7N9+P0A7P5+P0A7Q1+Q2EEQ2+P0A7Q6+P60438+P62399+P0AG55+P0A7K2); test: Binding affinity to Escherichia coli ribosomal pre-translocation complex assessed as stabilization of hybrid-state occupancy by tRNA at <2 uM; settings: MRE600
[15] = biological target: T1, Bacterial 70S ribosome (Bacteria); test: Binding affinity to Escherichia coli ribosomal pre-translocation complex assessed as stabilization of classical-state occupancy by tRNA at 200 uM; settings: MRE600
[16] = biological target: T1, Bacterial 70S ribosome (Bacteria); test: Binding affinity to Escherichia coli ribosomal pre-translocation complex assessed as decreased rate of EF-G-catalyzed translocation by tRNA at <2 uM; settings: MRE600
[17] = biological target: T1, Bacterial 70S ribosome (Bacteria); test: Binding affinity to Escherichia coli ribosomal pre-translocation complex assessed as stabilization of hybrid-state occupancy by tRNA at 100 nM; settings: MRE600
[18] = biological target: T1, Bacterial 70S ribosome (Bacteria); test: Binding affinity to Escherichia coli ribosomal pre-translocation complex assessed as decreased rate of EF-G-catalyzed translocation by tRNA at 100 nM; settings: MRE600
[19] = biological target: T1, Bacterial 70S ribosome (Bacteria); test: Binding affinity to Escherichia coli ribosomal pre-translocation complex assessed as decreased rate of EF-G-catalyzed translocation fraction by tRNA at 100 nM; settings: MRE600
[20] = biological target: T1, Bacterial 70S ribosome (Bacteria); test: Binding affinity to Escherichia coli ribosomal pre-translocation complex assessed as stabilization of hybrid-state occupancy by tRNA at 2 uM; settings: MRE600
Nucleic Acid [21] = test: Binding affinity to Escherichia coli ribosomal pre-translocation complex assessed as classical-state occupancy by tRNA at 200 uM (Rvb= 62.4+/-1.1%); assay type: nucleic-acid assay; settings: MRE600
Nucleic Acid [22] = test: Binding affinity to Escherichia coli ribosomal pre-translocation complex assessed as tRNA translocation rate at 200 uM (Rvb= 1.57+/-0.05 /sec); assay type: nucleic-acid assay; settings: MRE600
Nucleic Acid [23] = test: Binding affinity to Escherichia coli 16S rRNA helix 44 assessed as increase in classical-state occupancy by tRNA at 20 nM to 200 uM by smFRET; assay type: nucleic-acid assay; settings: MRE600
Nucleic Acid [24] = test: Binding affinity to Escherichia coli 16S rRNA helix 44 assessed as increase in classical-state occupancy by tRNA at >=20 uM by smFRET; assay type: nucleic-acid assay; settings: MRE600
Nucleic Acid [25] = test: Binding affinity to Escherichia coli 16S rRNA helix 44 assessed as increase in classical-state occupancy by tRNA by smFRET; assay type: nucleic-acid assay; settings: MRE600, TDE = time-dependent effect
Nucleic Acid [26] = test: Binding affinity to Escherichia coli 23S rRNA G2553C mutant assessed as increase in classical-state occupancy by tRNA by smFRET; assay type: nucleic-acid assay; settings: MRE600
Nucleic Acid [27] = test: Binding affinity to Escherichia coli 16S rRNA helix 44 assessed as stabilization of classical state occupancy by tRNA by smFRET; assay type: nucleic-acid assay, MRE600
Nucleic Acid [28] = test: Binding affinity to Escherichia coli 23S rRNA assessed as stabilization of classical state occupancy by tRNA by smFRET; assay type: nucleic-acid assay, MRE600
Nucleic Acid [29] = test: Binding affinity to Escherichia coli 16S A1408G rRNA assessed as increase in classical-state occupancy by tRNA by smFRET; assay type: nucleic-acid assay; settings: MRE600
Escherichia coli [30] = test: Stabilization of classical-state occupancy by tRNA in ribosomal pre-translocation complex in Escherichia coli MRE600 expressing 16S A1408G and 23S G2553C rRNA mutant by smFRET; assay type: functional
Escherichia coli [31] = test: Increase in hybrid-state occupancy by tRNA in ribosomal pre-translocation complex in Escherichia coli MRE600 by smFRET method in presence of 20 uM neomycin; assay type: functional, organism-based
Escherichia coli [32] = test: Increase in hybrid-state occupancy by tRNA in ribosomal pre-translocation complex in Escherichia coli MRE600 by smFRET method in presence of 10 uM neomycin; assay type: functional
Nucleic Acid [33] = test: Binding affinity to Escherichia coli 16S rRNA helix 44 assessed as increase in classical-state occupancy by tRNA by […]; assay type: nucleic-acid assay, MRE600
Nucleic Acid [34] = test: Binding affinity to Escherichia coli 23S rRNA H69 assessed as increase in classical-state occupancy by tRNA by […]; assay type: nucleic-acid assay; settings: MRE600
Escherichia coli [35] = test: Increase in classical-state occupancy by tRNA in ribosomal pre-translocation complex in Escherichia coli MRE600 by smFRET method in presence of 200 nM neomycin; assay type: functional, organism-based

CN[C@@H]1[C@@H](O)[C@@H](O[C@@H]2[C@@H](O)[C@H](O[C@H]3O[C@H]([C@@H](C)N)CC[C@H]3N)[C@@H](N)C[C@H]2N)OC[C@]1(C)O gave an Activity (Nucleic Acid [1]) of 5%, an Activity (Nucleic Acid [2]) of 18% and an Activity (Nucleic Acid [3]) of 67.2%. The Activity (Nucleic Acid [4]) was 0.42 s⁻¹.
CN[C@@H]1[C@@H](O)[C@@H](O[C@@H]2[C@@H](O)[C@H](O[C@H]3O[C@H]([C@@H](C)NC)CC[C@H]3N)[C@@H](N)C[C@H]2N)OC[C@]1(C)O showed an Activity (Nucleic Acid [1]) of 5%, an Activity (Nucleic Acid [2]) of 14% and an Activity (Nucleic Acid [3]) of 67.2%. The Activity (Nucleic Acid [4]) was 0.42 s⁻¹.
NC[C@@H]1O[C@H](O[C@H]2[C@@H](O)[C@H](O[C@@H]3[C@@H](O)[C@H](N)C[C@H](N)[C@H]3O[C@H]3O[C@H](CN)[C@@H](O)[C@H](O)[C@H]3N)O[C@@H]2CO)[C@H](N)[C@@H](O)[C@@H]1O was tested, and the fold change (FC) (Nucleic Acid [5]) was 1.5, the fold change (FC) (Nucleic Acid [6]) was 3 and the Activity (Nucleic Acid [7]) was 70.3%. The Activity (Nucleic Acid [8]) was 52%, the Activity (Nucleic Acid [9]) was 0.31 s⁻¹ and the Activity (Nucleic Acid [10]) was 0.06 s⁻¹. For the same compound, the Activity (Nucleic Acid [11]) was 10%, the Activity (Nucleic Acid [12]) was 6% and the Activity (Nucleic Acid [13]) was 10%.
For NC[C@@H]1O[C@H](O[C@H]2[C@@H](O)[C@H](O[C@@H]3[C@@H](O)[C@H](N)C[C@H](N)[C@H]3O[C@H]3O[C@H](CO)[C@@H](O)[C@H](O)[C@H]3N)O[C@@H]2CO)[C@H](N)[C@@H](O)[C@@H]1O, the Activity (Nucleic Acid [1]) was 2%, the Activity (Nucleic Acid [2]) was 12% and the Activity (Nucleic Acid [3]) was 63.9%. For the same compound, the Activity (Nucleic Acid [4]) was 0.51 s⁻¹.
For NCCC[C@H](N)CC(=O)N[C@H]1CNC(=O)[C@H]([C@H]2C[C@H](O)NC(N)=N2)NC(=O)/C(=C/NC(N)=O)NC(=O)[C@H](CO)NC(=O)[C@H](CO)NC1=O (β3hOrn-[Dap]SS[ΔAla(Z-3-ureido)][X1]; lactam 1-C), the Activity [14] was “Active”, the Activity [15] was “Active” and the Activity [16] was “Active”. It also gave an Activity [17] of 10%, a fold change (FC) [18] of 1.5 and a fold change (FC) [19] of 2. The Activity [20] was “Active”, the Activity (Nucleic Acid [21]) was 46.8% and the Activity (Nucleic Acid [22]) was 0.04 s⁻¹.
For NC[C@H]1O[C@H](O[C@H]2[C@H](O)[C@@H](O[C@H]3O[C@H](CO)[C@@H](O)[C@H](N)[C@H]3O)[C@H](N)C[C@@H]2N)[C@H](N)[C@@H](O)[C@@H]1O [BEKANAMYCIN], the Activity (Nucleic Acid [23]) was “Dose-dependent effect”, the Activity (Nucleic Acid [24]) was “Active” and the Activity (Nucleic Acid [25]) was “tde”. The Activity (Nucleic Acid [26]) was 25%, the Activity (Nucleic Acid [1]) was 8% and the pEC50 (Nucleic Acid [27]) was 6.52. For the same compound, the pEC50 (Nucleic Acid [28]) was 6.52, the Activity (Nucleic Acid [29]) was “inactive” and the Activity (Escherichia coli [30]) was 10%. The Activity (Nucleic Acid [2]) was 25%, the Activity (Nucleic Acid [3]) was 69.6% and the Activity (Nucleic Acid [4]) was 0.27 s⁻¹.
In the case of NC[C@@H]1O[C@@H](O[C@H]2[C@H](O)[C@@H](O[C@H]3O[C@H](CO)[C@@H](O)[C@H](N)[C@H]3O)[C@H](N)C[C@@H]2N)[C@@H](O)[C@H](O)[C@H]1O [KANAMYCIN A], the Activity (Nucleic Acid [23]) was “Dose-dependent effect”, the Activity (Nucleic Acid [24]) was “Active” and the Activity (Nucleic Acid [25]) was “tde”. The Activity (Nucleic Acid [26]) was 25%, the Activity (Nucleic Acid [1]) was 8% and the pEC50 (Nucleic Acid [27]) was 6.52. The pEC50 (Nucleic Acid [28]) was 6.52, the Activity (Nucleic Acid [29]) was “inactive” and the Activity (Escherichia coli [30]) was 10%. It also gave an Activity (Nucleic Acid [2]) of 25%, an Activity (Nucleic Acid [3]) of 69.6% and an Activity (Nucleic Acid [4]) of 0.27 s⁻¹.
COc1ccc(C[C@H](N)C(=O)N[C@H]2[C@@H](O)[C@H](n3cnc4c(N(C)C)ncnc43)O[C@@H]2CO)cc1 [PUROMYCIN] was tested, and the Activity (Escherichia coli [31]) was “Active”, the Activity (Escherichia coli [32]) was 25% and the pEC50 (Nucleic Acid [33]) was 7.00. For the same compound, the Activity (Nucleic Acid [34]) was over 1 µM and the Activity (Escherichia coli [35]) was “Active”.
